Measurements reported in patent publication US20260234178A1, “PYRANOSIDE COMPOUNDS AND METHODS” (JAMES COOK UNIVERSITY, priority 2022, published 2026).

Key:
Type in all cases: cell-based
IL-17A [1] = experiment: Cytokine suppression assay, anti-CD3/anti-CD28 (Dynabead)-stimulated PBMC: IL-17A release; conditions: 10 μg/mL; anti-CD3/anti-CD28-stimulated human PBMC; 20 h
Excerpt: (§1) PBMCs from four healthy donors were isolated from buffy coats using Lymphoprep™ density gradient medium ([sequence] Technologies, Vancouver, Canada), according to the manufacturer's instructions. Isolated cells were cryopreserved in 90% heat-inactivated foetal calf serum (FCS) (Bovogen Biologicals) with 10% dimethyl sulfoxide (DMSO; Sigma-Aldrich, St. Louis, MO, USA) using vapour phase nitrogen until required. On the day of the experiment, PBMCs were thawed and removed from the freezing medium by washing with 9 mL pre-warmed culture medium and centrifugation at 300×g for 5 min. An R10 culture medium of RPMI-1640 media without L-glutamine (Gibco Thermo Fisher Scientific, Waltham, MA, USA), supplemented with 10% heat-inactivated foetal bovine serum (FBS; Bovogen Biologicals, Christchurch, New Zealand), 10,000 units/mL of penicillin+10,000 μg/mL of streptomycin (Thermo Fisher Scientific), and 1× GlutaMAX (Thermo Fisher Scientific) was used for all experiments. […] After incubation, the enzyme was removed by two additional washes with R10. Thawed PBMCs were counted using a CASY cell counter (Roche Innovatis, Germany), and cell densities were adjusted to seed 100,000 cells/well into 96-well plates in a final volume of 100 μL culture medium.
(§2) For our cytokine suppression assays, inflammatory cytokines (IFN-γ, IL-17A, IL-8, and TNF) were induced in two ways. First, the PBMCs from three donors were activated with a cell stimulation cocktail of 50 ng/mL phorbol 12-myristate 13-acetate and 1 μg/mL ionomycin (P/I; eBioscience). P/1-stimulated cells were treated with 10 μg/mL of U. metrosideros compounds, PCE, CsA (Sigma-Aldrich), or remained untreated. Second, the PBMCs from four donors were cultured in the presence of Dynabeads Human T-Activator CD3/CD28 (Gibco) at a cell-to-bead ratio of 1:1. […] On the day of the experiment, cytokine concentrations were determined using a standard LEGENDplex™ human inflammation panel 1 (BioLegend®), LSRFortessa (BD), and LEGENDplex™ software (version 2022-02-10, Qognit, Inc.).

IFN-γ [2] = experiment: Cytokine suppression assay, P/I-stimulated PBMC: IFN-γ release; conditions: 10 μg/mL; P/I-stimulated human PBMC; 20 h treatment; relative to stimulated control
Excerpt: as §1, §2

IL-17A [3] = experiment: Cytokine suppression assay, P/I-stimulated PBMC: IL-17A release; conditions: 10 μg/mL; P/I-stimulated human PBMC; 20 h treatment; relative to stimulated control
Excerpt: (§3) PBMCs from four healthy donors were isolated from buffy coats using Lymphoprep™ density gradient medium ([sequence] Technologies, Vancouver, Canada), according to the manufacturer's instructions. Isolated cells were cryopreserved in 90% heat-inactivated foetal calf serum (FCS) (Bovogen Biologicals) with 10% dimethyl sulfoxide (DMSO; Sigma-Aldrich, St. Louis, MO, USA) using vapour phase nitrogen until required. On the day of the experiment, PBMCs were thawed and removed from the freezing medium by washing with 9 mL pre-warmed culture medium and centrifugation at 300×g for 5 min. […] Thawed PBMCs were counted using a CASY cell counter (Roche Innovatis, Germany), and cell densities were adjusted to seed 100,000 cells/well into 96-well plates in a final volume of 100 μL culture medium.
(§4) For our cytokine suppression assays, inflammatory cytokines (IFN-γ, IL-17A, IL-8, and TNF) were induced in two ways. […] On the day of the experiment, cytokine concentrations were determined using a standard LEGENDplex™ human inflammation panel 1 (BioLegend®), LSRFortessa (BD), and LEGENDplex™ software (version 2022-02-10, Qognit, Inc.).

IL-8 = experiment: Cytokine suppression assay, anti-CD3/anti-CD28 (Dynabead)-stimulated PBMC: IL-8 release; conditions: 10 μg/mL; anti-CD3/anti-CD28-stimulated human PBMC; 20 h
Excerpt: as §3, §4

IFN-γ [4] = experiment: Cytokine suppression assay, anti-CD3/anti-CD28 (Dynabead)-stimulated PBMC: IFN-γ release; conditions: 10 μg/mL; anti-CD3/anti-CD28-stimulated human PBMC; 20 h
Excerpt: as §3, §4

Compound	suppression of Dynabead-induced IL-17A secretion (IL-17A [1]) [%]	suppression of IFN-γ secretion (IFN-γ [2]) [%]	reduction of IL-17A levels (IL-17A [3]) [%]	inhibition of IL-8 release (IL-8) [%]	suppression of Dynabead-induced IFN-γ secretion (IFN-γ [4]) [%]
CC1=CC(=O)CC(C)(C)[C@@]1(O)/C=C/[C@@H](C)O[C@@H]1O[C@H](CO)[C@@H](O)[C@H](O)[C@H]1O [Compound 3, (6S,9R)-roseoside]	38.2	64.4			
CC1=CC[C@@H](C(C)(C)O[C@@H]2O[C@H](COC(=O)c3cc(O)c(O)c(O)c3)[C@@H](O)[C@H](O)[C@H]2O)CC1 [Compound 5, (4S)-α-terpineol 8-O-β-D-(6-O-galloyl)glucopyranoside]	53.7	79.6	60.9	24.3	59.3
galloyl-lawsoniaside A [Compound 4]	80.9	95.3	79.1	40.5	78.5
